According to patent US20080275058A1, “N-Substituted-1H-Quinoline-2,4-Diones, Preparation Method Thereof, And Pharmaceutical Composition Containing The Same” (KOREA RESEARCH INSTITUTE OF CHEMICAL TECHNOLOGY, priority 2005, published 2008):
Where two headings read alike, the source gives them in different places.

How the values were obtained:
[1] = target: T1, 5-HT2a (Homo sapiens, UniProt P28223); assay: Radioligand binding, 5-HT2a ([3H]Ketanserin); conditions: Table 4; [3H]Ketanserin 1 nM; read-out: Binding affinity, IC50 (nM) 5-HT2a
T1 construct: purchased Euroscreen/BioSignal Packard Inc

[2] = target: T2, hD4.2 receptor (Homo sapiens, UniProt P21917, DEL265-296); assay: Radioligand binding, dopamine D4 ([3H]YM-09151-2); conditions: Table 4; [3H]YM-09151-2 0.06 nM; read-out: Binding affinity, IC50 (nM) D4
T2 construct: purchased BioSignal Packard Inc., Montreal, Canada
T2 sequence (P21917 with tags, fused parts or gaps DEL265-296): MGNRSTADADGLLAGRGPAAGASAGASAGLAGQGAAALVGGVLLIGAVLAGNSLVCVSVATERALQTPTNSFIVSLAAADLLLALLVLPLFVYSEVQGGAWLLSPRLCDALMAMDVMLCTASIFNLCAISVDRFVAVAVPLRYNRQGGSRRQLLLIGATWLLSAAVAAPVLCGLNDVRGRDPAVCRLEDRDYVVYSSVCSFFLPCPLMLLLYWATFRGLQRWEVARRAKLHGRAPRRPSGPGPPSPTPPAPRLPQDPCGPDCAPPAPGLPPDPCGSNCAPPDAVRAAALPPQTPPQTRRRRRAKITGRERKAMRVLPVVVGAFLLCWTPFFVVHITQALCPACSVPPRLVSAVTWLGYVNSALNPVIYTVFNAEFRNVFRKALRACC
How it was run: (§1)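 IC50 values come from nonlinear fits of three displacement experiments, each using 7-8 test concentrations in duplicate. D2L and D3 membranes were labelled with 1 nM [3H]spiperone, and D4.2 with 0.06 nM [3H]YM-09151-2. All assays used pH 7.4 Tris buffers, with the D3 buffer adding 120 mM NaCl, KCl and CaCl2.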

[3] = Rotarod deficit in mice; assay type: in vivo, mouse; conditions: mouse, in vivo, po, unit printed as image, read-out: TD50 (median neurotoxic dose)
Description: (§2) The mouse was placed on a 1 inch diameter knurled plastic rod rotating at 6 rpm (Ugo-Basile, Milano, Italy), and the rotarod deficit (%) was obtained by counting the number of animals fallen from the rotating rod within 1 min [Dunham et al., 1957] at 60, 90 and 120 min after the injection of the compound according to the invention(200, 300 or 400 ? ). […] The compounds of the examples were suspended in 3% Tween 80 solution, and were administered (p.o.) 60 min before the testing.

[4] = tested on: mice; assay: Rotarod deficit in mice; assay type: in vivo, mouse
Description: as §2

[5] = target: T3, hD3 (Homo sapiens, UniProt P35462); assay: Radioligand binding, dopamine D3 ([3H]spiperone); conditions: Table 4; [3H]spiperone 1 nM; read-out: Binding affinity, IC50 (nM) D3
T3 construct: purchased BioSignal Packard Inc., Montreal, Canada
How it was run: as §1

[6] = target: T4, Human serotonin 5-HT6 receptor (Homo sapiens, UniProt P50406); assay: [3H]LSD binding assay on cloned 5-HT6 receptor membranes
T4 construct: made in house; host or cells: insect Sf21 cells (baculovirus vector BacPAK8)

[7] = target: T5, hD2L (Homo sapiens, UniProt P14416); assay: Radioligand binding, dopamine D2 ([3H]spiperone); conditions: Table 4; [3H]spiperone 1 nM; read-out: Binding affinity, IC50 (nM) D2
T5 construct: purchased BioSignal Packard Inc., Montreal, Canada
How it was run: as §1

[8] = target: T6, 5-HT1a (Homo sapiens, UniProt P08908); assay: Radioligand binding, 5-HT1a ([3H]8-OH-DPAT); conditions: Table 4; [3H]8-OH-DPAT 0.5 nM; read-out: Binding affinity, IC50 (nM) 5-HT1a
T6 construct: purchased Euroscreen/BioSignal Packard Inc
T6 sequence (P08908 1-422): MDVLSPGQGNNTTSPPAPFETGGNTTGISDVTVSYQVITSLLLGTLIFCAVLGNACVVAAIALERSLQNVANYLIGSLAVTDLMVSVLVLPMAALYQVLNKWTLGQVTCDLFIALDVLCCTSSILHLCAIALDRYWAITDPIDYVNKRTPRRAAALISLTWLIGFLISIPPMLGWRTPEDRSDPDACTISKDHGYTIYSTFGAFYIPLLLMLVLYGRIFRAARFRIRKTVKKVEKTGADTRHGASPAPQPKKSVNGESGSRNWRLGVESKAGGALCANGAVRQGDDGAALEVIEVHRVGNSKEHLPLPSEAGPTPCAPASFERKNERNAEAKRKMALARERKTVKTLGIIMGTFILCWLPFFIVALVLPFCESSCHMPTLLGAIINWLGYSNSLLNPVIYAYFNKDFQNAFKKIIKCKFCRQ
How it was run: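 Supplier-recommended protocol used throughout, with purchased membrane preparations carrying each receptor as the binding source.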

[9] = target: T7, 5-HT7 (Homo sapiens, UniProt P34969); assay: Radioligand binding, 5-HT7 ([3H]LSD); conditions: Table 4; [3H]LSD 3 nM; read-out: Binding affinity, IC50 (nM) 5-HT7
T7 construct: purchased Euroscreen/BioSignal Packard Inc

[10] = target: D1 (Homo sapiens, UniProt P21728); assay: Radioligand binding, dopamine D1; conditions: Table 4; read-out: Binding affinity, IC50 (nM) D1
[11] = target: T8, 5-HT2c (Homo sapiens, UniProt P28335); assay: Radioligand binding, 5-HT2c ([3H]Mesulergine); conditions: Table 4; [3H]Mesulergine 1 nM; read-out: Binding affinity, IC50 (nM) 5-HT2c
T8 construct: purchased Euroscreen/BioSignal Packard Inc
T8 sequence (P28335 33-458): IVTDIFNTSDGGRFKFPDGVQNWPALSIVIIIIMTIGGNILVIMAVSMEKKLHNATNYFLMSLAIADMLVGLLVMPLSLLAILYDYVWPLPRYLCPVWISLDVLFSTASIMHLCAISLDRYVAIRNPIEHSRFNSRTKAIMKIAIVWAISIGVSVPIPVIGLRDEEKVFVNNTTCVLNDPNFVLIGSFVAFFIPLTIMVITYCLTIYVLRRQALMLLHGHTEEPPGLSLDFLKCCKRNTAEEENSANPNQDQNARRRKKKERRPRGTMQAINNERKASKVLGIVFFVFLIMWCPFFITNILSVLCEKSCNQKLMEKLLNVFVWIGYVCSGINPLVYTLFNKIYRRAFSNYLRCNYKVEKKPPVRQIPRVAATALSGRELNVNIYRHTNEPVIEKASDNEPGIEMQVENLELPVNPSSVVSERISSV

[12] = Table 2, 1.87 nM [3H]LSD, 37 C, 60 min, read-out: IC50 (nM), binding affinity to the 5-HT6 receptor
[13] = Table 4, read-out: Binding affinity, IC50 (nM) 5-HT6

T5 sequence (P14416 whole entry): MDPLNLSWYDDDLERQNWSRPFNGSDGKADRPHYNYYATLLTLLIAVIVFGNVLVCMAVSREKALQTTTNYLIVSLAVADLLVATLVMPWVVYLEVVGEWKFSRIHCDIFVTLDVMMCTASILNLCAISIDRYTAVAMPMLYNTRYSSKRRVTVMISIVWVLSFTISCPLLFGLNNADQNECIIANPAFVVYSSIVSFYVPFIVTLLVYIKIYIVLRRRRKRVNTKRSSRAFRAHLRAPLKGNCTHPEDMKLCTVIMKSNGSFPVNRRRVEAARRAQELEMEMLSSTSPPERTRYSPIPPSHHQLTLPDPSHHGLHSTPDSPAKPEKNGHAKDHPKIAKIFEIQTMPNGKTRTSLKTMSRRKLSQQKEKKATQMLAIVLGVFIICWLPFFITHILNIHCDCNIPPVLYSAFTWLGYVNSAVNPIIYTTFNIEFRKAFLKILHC
T4 sequence (P50406 whole entry): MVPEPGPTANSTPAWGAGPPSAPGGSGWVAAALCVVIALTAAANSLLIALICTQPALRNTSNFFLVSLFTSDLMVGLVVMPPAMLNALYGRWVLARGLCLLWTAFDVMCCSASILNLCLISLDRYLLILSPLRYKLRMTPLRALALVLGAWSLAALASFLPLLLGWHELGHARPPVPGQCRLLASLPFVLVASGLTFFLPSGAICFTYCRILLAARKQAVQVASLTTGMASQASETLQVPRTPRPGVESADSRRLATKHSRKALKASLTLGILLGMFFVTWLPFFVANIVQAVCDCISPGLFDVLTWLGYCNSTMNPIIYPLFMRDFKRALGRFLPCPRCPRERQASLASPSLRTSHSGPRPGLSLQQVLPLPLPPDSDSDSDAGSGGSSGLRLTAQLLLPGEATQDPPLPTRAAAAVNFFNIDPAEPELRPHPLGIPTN
T1 sequence (P28223 whole entry): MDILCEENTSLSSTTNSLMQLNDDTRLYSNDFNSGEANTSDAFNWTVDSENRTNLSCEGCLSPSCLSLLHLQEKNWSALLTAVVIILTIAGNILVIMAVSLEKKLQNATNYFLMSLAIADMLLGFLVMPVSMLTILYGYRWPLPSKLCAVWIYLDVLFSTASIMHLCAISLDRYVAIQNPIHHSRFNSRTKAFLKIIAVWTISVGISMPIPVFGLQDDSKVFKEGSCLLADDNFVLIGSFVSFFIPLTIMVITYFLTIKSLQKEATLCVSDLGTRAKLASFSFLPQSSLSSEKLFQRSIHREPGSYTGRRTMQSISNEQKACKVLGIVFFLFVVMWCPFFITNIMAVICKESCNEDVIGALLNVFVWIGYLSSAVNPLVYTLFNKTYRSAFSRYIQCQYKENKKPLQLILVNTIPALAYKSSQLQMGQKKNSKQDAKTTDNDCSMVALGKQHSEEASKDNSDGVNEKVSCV
D1, sequence (P21728 whole entry): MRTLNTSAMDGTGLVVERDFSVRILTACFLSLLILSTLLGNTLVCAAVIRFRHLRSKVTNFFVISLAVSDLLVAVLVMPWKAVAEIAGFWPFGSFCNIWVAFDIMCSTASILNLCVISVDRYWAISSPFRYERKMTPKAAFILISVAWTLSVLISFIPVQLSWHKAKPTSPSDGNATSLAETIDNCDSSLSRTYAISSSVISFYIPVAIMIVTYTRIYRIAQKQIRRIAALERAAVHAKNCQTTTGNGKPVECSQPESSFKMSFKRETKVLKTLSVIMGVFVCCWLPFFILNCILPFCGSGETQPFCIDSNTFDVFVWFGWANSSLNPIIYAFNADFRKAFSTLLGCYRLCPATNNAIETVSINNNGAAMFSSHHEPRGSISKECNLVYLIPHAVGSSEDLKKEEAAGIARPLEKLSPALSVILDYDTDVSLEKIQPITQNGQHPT
T3 sequence (P35462 whole entry): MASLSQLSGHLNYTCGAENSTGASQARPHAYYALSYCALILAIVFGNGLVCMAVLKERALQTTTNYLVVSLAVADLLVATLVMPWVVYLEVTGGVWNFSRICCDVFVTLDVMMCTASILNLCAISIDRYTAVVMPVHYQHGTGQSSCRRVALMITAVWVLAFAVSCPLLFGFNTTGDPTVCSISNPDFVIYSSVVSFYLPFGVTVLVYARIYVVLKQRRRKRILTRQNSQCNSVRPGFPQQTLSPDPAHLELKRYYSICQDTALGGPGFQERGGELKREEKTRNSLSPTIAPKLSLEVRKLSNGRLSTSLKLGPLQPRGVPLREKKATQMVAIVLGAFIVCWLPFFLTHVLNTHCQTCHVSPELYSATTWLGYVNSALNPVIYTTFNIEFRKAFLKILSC
T7 sequence (P34969 whole entry): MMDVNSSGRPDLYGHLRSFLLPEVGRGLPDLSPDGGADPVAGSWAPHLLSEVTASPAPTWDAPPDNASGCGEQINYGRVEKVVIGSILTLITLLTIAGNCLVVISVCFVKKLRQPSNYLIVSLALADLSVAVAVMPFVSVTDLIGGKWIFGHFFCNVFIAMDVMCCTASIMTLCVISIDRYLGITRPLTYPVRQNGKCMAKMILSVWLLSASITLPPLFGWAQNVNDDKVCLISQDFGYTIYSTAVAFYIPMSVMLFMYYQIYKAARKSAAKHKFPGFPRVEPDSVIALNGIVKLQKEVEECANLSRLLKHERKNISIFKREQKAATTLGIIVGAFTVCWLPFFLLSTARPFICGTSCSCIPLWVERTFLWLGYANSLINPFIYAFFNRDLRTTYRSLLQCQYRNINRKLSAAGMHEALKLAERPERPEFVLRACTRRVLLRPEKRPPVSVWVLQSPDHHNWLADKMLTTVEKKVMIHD

Row | Structure (SMILES) | IC50 [1] [nM] | IC50 [2] [nM] | melting point [°C] | TD50 at 120 min [3] [mg/kg] | Rotarod deficit (%) ([4]; 200 p.o. (dose unit not given)) | Rotarod deficit (%) ([4]; 300 p.o. (dose unit not given)) | Rotarod deficit (%) ([4]; 400 p.o. (dose unit not given)) | IC50 [5] [nM] | IC50 [6, 12] [nM] | IC50 [6, 13] [nM] | IC50 [7] [nM] | IC50 [8] [nM] | IC50 [9] [nM] | IC50 [10] [nM] | IC50 [11] [nM]
1 | CN1CCN(c2cc(Cl)cc3c2C(=O)C(C)(c2ccc([N+](=O)[O-])cc2)C(=O)N3Cc2ccccc2)CC1 (stereo not drawn) [Example 3, 1-Benzyl-7-chloro-3-methyl-5-(4-methyl-piperazin-1-yl)-3-(4-nitro-phenyl)-1H-quinolin-2,4-dione] | 1540 | > 10000 | 179 to 180 | > 400 | 0 | 0 | 0 | 360 | 4.7 | 4.7 | > 10000 | 5730 | 4570 | 814 | > 10000
2 | CN1CCN(c2cc(Cl)cc3c2C(=O)C(C)(c2ccc(OCc4ccccc4)c(Br)c2)C(=O)N3Cc2ccccc2)CC1 (stereo not drawn) [Example 12, 1-Benzyl-3-(4-benzyloxy-3-bromo-phenyl)-7-chloro-3-methyl-5-(4-methyl-piperazin-1-yl)-1H-quinoline-2,4-dione] | 95 | > 10000 | 95 to 97 | > 400 | 0 | 0 | 0 | 153 | 9.2 | 9.2 | 6450 | 2520 | 136 | 1240 | 1290
3 | CCNc1ccc([C@]2(C)C(=O)c3c(N4CCN(C)CC4)cc(Cl)cc3N(Cc3ccccc3)C2=O)cc1 (stereo in doubt) [Example 6, 1-Benzyl-7-chloro-3-(4-ethylamino-phenyl)-3-methyl-5-(4-methyl-piperazin-1-yl)-1H-quinoline-2,4-dione] | > 1000 | > 10000 | 153 to 155 | > 400 | 0 | 0 | 0 | 981 | 3.4 | 3.4 | > 1000 | > 10000 | > 1000 | > 1000 | > 1000
4 | CC1(c2ccc(O)cc2)C(=O)c2c(N3CCNCC3)cc(Cl)cc2N(Cc2cccc([N+](=O)[O-])c2)C1=O (stereo not drawn) [Example 24, 7-Chloro-3-(4-hydroxy-phenyl)-3-methyl-1-(3-nitro-benzyl)-5-piperazin-1-yl-1H-quinoline-2,4-dione] | 5040 | > 10000 | 252 to 253 | > 400 | 0 | 0 | 0 | 2330 | 14.5 | 14.5 | 3000 | > 10000 | > 10000 | 4930 | 6090
5 | CC1(c2ccc(O)cc2)C(=O)c2c(N3CCNCC3)cc(Cl)cc2N(Cc2cccc(O)c2)C1=O (stereo not drawn) [Example 28, 7-Chloro-1-(3-hydroxy-benzyl)-3-(4-hydroxy-phenyl)-3-methyl-5-piperazin-1-yl-1H-quinoline-2,4-dione] | > 10000 | > 10000 | 229 to 230 | > 400 | 0 | 0 | 0 | > 1000 | 3 | 3 | > 10000 | > 10000 | > 10000 | > 10000 | > 10000
6 | COc1ccc(C2(C)C(=O)c3c(N4CCN(C)CC4)cc(Cl)cc3N(Cc3cccc(N)c3)C2=O)cc1 (stereo not drawn) [Example 9, 1-(3-Amino-benzyl)-7-chloro-3-(4-methoxy-phenyl)-3-methyl-5-(4-methyl-piperazin-1-yl)-1H-quinoline-2,4-dione] | > 10000 | > 10000 | 90 to 93 | > 400 | 0 | 0 | 0 | 821 | 5.2 | 5.2 | > 10000 | > 10000 | > 10000 | > 10000 | > 10000
7 | CC1(c2ccc(I)cc2)C(=O)c2c(N3CCNCC3)cc(Cl)cc2N(Cc2ccccc2)C1=O (stereo not drawn) [Example 21, 1-Benzyl-7-chloro-3-(4-iodo-phenyl)-3-methyl-5-piperazin-1-yl-1H-quinoline-2,4-dione] | 553 | 5870 | 176 to 177 | > 400 | 0 | 0 | 0 | 1050 | 6.9 | 6.9 | 1640 | 468 | 3340 | 1620 | 1810
8 | COc1ccc(C2(C)C(=O)c3c(N4CCNCC4)cc(Cl)cc3N(Cc3cccc(OC)c3)C2=O)cc1 (stereo not drawn) [Example 27, 7-Chloro-1-(3-methoxy-benzyl)-3-(4-methoxy-phenyl)-3-methyl-5-piperazin-1-yl-1H-quinoline-2,4-dione] | > 1000 | > 10000 | 110 to 112 | > 400 | 0 | 0 | 0 | 2640 | 2.3 | 2.3 | > 1000 | > 10000 | > 1000 | > 1000 | > 1000
